Test results as given in patent publication US9242959B2, “(Aza)benzhydryl ether derivatives, their process of preparation and their use as H4-receptor ligands for therapeutical applications” (BIOPROJET, priority 2012, dated 2016).

How the values were obtained:
human H4 receptor [1] = biological target: T1, human H4 receptor (Homo sapiens, UniProt Q9H3N8); assay: [3H]Histamine binding assay on membranes of CHO cells stably expressing human H4 receptor
T1 construct: expressed in transfected cells
Description: CHO cells stably expressing human H4 receptor were grown until sub-confluence and centrifuged at 300 g 15 minutes at 4° C. Pellets were resuspended in buffer I Tris-HCl 50 mM, MgCl2 10 mM, NaCl 140 mM, pH=7.4 supplemented by a 1/50 dilution of a mix of protease inhibitors. The obtained suspension is stirred gently and submitted to a […] exerted through a syringe. The cell lysate is then centrifuged at 300 g 15 minutes at 4° C. in order to eliminate nucleus and cell scraps. The obtained supernatant was then centrifuged at 48000 g for 30 minutes at 4° C. The final pellet is resuspended in buffer I with a potter homogenizer. Aliquots were frozen in liquid nitrogen and stored until use at −80° C. Protein content is measured by the Bradford method.
Defreezed membranes were diluted at a final concentration of 20 μg/180 μL/well in a binding buffer containing 50 mM Tris/HCl, 0.5 mM EDTA, pH=7.4 and distributed in 96 well polystyrene microplate. [^3H] […] Non specific binding was estimated in the presence of 10 μM BP1.2404 (JNJ 7777120). The reaction was terminated by filtration through GF/B filters pre-soaked 2 hours at 4° C. in 1% polyethyleneimine. Filters were rinsed 3 times with 250 μl of ice cold incubation binding buffer.
The filter-bound radioactivity was measured in a liquid scintillation counter Microbeta TRILUX® with 50 μl of scintillation fluid.
The hH4 binding investigated by use of [^3H]

human H4 receptor [2] = biological target: T1, human H4 receptor; assay: GTPγ[35S] binding assay on membranes of SH-SY5Y cells stably expressing human H4 receptor; format: biochemical
Description: SH-SY5Y cells stably expressing human H4 receptor are grown until sub-confluence and centrifuged at 300 g 15 minutes at 4° C. Pellets are resuspended in buffer I Tris-HCl 50 mM, MgCl2 10 mM, NaCl 140 mM, pH=7.4 supplemented by Leupeptin 10 μg/mL, Phenyl Methyl Sulphonyl Fluoride (PMSF) 0.1 mM, Aprotinin 2 μg/mL and Pepstatin 2 μM (or a 1/50 dilution of a mix of protease inhibitors). The obtained suspension is stirred gently and submitted to a […] exerted through a syringe. The cell lysate is then centrifuged at 300 g 15 minutes at 4° C. in order to eliminate nucleus and cell scraps. The obtained supernatant is then centrifuged at 48000 g for 30 minutes at 4° C. The final pellet is resuspended in buffer I with a potter homogenizer. Aliquots are frozen in liquid nitrogen and stored until use at −80° C. Protein content is measured by the Bradford method.
Defreezed membranes are diluted at a final concentration of 5 μg/180 μL/well in buffer I supplemented by GDP 10 μM and distributed in 96 well polystyrene microplate. GTPγ [^35S] labelled ligand (0.2-0.3 nM) is added for additional 30 minutes. After transfer in a Millipore GF/C HTS® microplate, the filtration of the rectional mix is followed by a three times 250 μl wash to stop the reaction.
The filter-bound radioactivity is measured in a liquid scintillation counter Microbeta TRILUX® with 50 μl of scintillation fluid.
Results are expressed with IC50 and Ki values.

T1 sequence (Q9H3N8 whole entry): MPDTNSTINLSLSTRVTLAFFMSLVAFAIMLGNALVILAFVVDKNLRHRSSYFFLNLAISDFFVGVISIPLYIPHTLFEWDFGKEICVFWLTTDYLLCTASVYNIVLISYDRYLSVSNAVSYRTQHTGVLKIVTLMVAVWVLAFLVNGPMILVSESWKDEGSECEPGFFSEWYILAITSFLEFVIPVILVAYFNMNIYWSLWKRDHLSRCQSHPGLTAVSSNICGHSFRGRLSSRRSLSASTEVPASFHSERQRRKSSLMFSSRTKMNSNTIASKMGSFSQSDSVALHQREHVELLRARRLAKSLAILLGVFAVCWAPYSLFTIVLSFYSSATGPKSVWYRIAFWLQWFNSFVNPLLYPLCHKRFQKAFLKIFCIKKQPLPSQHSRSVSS

## Cc1ccc(C(OC2CCN(C)CC2)c2ccc(Cl)c(Cl)c2)c(F)c1.O=C(O)C(=O)O (stereo not drawn) [Example 30, 4-[(3,4-Dichlorophenyl)(2-fluoro-4-methylphenyl)methoxy]-1-methylpiperidine, oxalate]
Human H4 receptor [1]
  Ki: < 0.3 µM
Human H4 receptor [2]
  IC50: < 0.3 µM
other
  melting point: 140 °C

## CN1CCC(OC(c2cccc(C#CCCCCN)c2)c2ccc(Cl)cn2)CC1.O=C(O)C(=O)O (stereo not drawn) [Example 18, 6-{3-[(5-Chloropyridin-2-yl)(1-methylpiperidin-4-yloxy)methyl]phenyl}hex-5-ynylamine, oxalate]
Human H4 receptor [1]
  Ki: < 0.03 µM
Human H4 receptor [2]
  IC50: < 0.3 µM
other
  melting point: 136 °C

## Cc1ccc(C(OC2CCN(C)CC2)c2ccc(F)cn2)c(F)c1.O=C(O)C(=O)O (stereo not drawn) [Example 10, 5-Fluoro-2-[(2-fluoro-4-methylphenyl)(1-methylpiperidin-4-yloxy)methyl]pyridine, oxalate]
Human H4 receptor [1]
  Ki: < 0.3 µM
Human H4 receptor [2]
  IC50: < 0.3 µM
other
  melting point: 133 °C

## CN1CCC(OC(c2ccc(Cl)cc2)c2cccc(I)c2)CC1.O=C(O)C(=O)O (stereo not drawn) [Example 35, 4-[(4-Chlorophenyl)(3-iodophenyl)methoxy]-1-methylpiperidine, oxalate]
Human H4 receptor [1]
  Ki: < 0.03 µM
Human H4 receptor [2]
  IC50: < 0.3 µM
other
  melting point: 141 °C

## CN1CCC(OC(c2ccccn2)c2cc(OC(F)(F)F)ccc2F)CC1.O=C(O)C(=O)O.O=C(O)C(=O)O (stereo not drawn) [Example 1, 2-[(2-Fluoro-5-trifluoromethoxyphenyl)(1-methylpiperidin-4-yloxy)methyl]pyridine, dioxalate]
Human H4 receptor [1]
  Ki: < 0.3 µM
Human H4 receptor [2]
  IC50: < 0.3 µM
other
  melting point: 45 °C

## CN1CCC(OC(c2ccc(Cl)c(Cl)c2)c2cc(OC(F)(F)F)ccc2F)CC1.O=C(O)C(=O)O (stereo not drawn) [Example 31, 4-[(3,4-Dichlorophenyl)(2-fluoro-5-trifluoromethoxyphenyl)methoxy]-1-methylpiperidine, oxalate]
Human H4 receptor [1]
  Ki: < 0.3 µM
Human H4 receptor [2]
  IC50: < 0.3 µM
other
  melting point: 115 °C

## Cc1ccnc(C(OC2CCN(C)CC2)c2ccc(C)cc2F)c1.O=C(O)C(=O)O.O=C(O)C(=O)O (stereo not drawn) [Example 7, 2-[(2-Fluoro-4-methylphenyl)(1-methylpiperidin-4-yloxy)methyl]-4-methylpyridine, dioxalate]
Human H4 receptor [1]
  Ki: < 0.3 µM
Human H4 receptor [2]
  IC50: < 0.3 µM
other
  melting point: 52 °C

## CN1CCC(OC(c2ccccc2F)c2cc(OC(F)(F)F)ccc2F)CC1.O=C(O)C(=O)O (stereo not drawn) [Example 32, 4-[(2-Fluorophenyl)-(2-fluoro-5-trifluoromethoxyphenyl)methoxy]-1-methylpiperidine, oxalate]
Human H4 receptor [1]
  Ki: < 1 µM
Human H4 receptor [2]
  IC50: < 1 µM
other
  melting point: 116 °C

## CN1CCC(OC(c2ccc3ccccc3c2)c2cc(OC(F)(F)F)ccc2F)CC1.O=C(O)C(=O)O (stereo not drawn) [Example 28, 4-[(2-Fluoro-5-trifluoromethoxyphenyl)naphthalen-2-ylmethoxy]-1-methylpiperidine, oxalate]
Human H4 receptor [1]
  Ki: < 1 µM
Human H4 receptor [2]
  IC50: < 0.3 µM
other
  melting point: 105 °C
